Among the data in ChEMBL document CHEMBL1144605, “Discovery of an androgen receptor modulator pharmacophore based on 2-quinolinones” (Bioorg Med Chem Lett, 2007) are IC50, Ki and EC50 values, retold here.

The target of experiment [1] is T1, Androgen receptor (Homo sapiens, UniProt P10275).
T1 sequence (P10275 whole entry): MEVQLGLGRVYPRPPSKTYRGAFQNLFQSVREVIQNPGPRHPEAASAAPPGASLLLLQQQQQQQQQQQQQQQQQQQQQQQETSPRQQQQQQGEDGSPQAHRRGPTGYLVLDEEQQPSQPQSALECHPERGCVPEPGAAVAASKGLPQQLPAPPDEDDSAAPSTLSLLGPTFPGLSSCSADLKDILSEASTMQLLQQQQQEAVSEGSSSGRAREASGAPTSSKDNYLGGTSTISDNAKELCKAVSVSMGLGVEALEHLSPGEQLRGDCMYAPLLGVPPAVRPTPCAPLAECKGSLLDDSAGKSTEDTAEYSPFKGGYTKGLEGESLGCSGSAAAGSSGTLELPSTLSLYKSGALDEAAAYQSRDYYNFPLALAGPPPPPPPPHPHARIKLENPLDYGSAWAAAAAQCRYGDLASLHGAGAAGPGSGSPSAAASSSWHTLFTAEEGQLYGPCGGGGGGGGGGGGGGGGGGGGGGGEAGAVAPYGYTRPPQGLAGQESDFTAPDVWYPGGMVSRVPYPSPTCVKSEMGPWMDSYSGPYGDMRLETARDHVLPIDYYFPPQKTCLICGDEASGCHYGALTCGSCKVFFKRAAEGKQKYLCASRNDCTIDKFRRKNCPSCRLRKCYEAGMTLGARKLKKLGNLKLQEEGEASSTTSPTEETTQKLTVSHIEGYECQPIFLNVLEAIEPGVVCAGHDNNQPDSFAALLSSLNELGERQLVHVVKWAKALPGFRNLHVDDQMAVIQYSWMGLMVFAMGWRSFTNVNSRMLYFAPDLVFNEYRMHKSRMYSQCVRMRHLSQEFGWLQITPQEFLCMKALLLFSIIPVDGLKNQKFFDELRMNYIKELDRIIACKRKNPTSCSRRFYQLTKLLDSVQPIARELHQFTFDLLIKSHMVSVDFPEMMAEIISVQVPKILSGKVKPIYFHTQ
Description: Antagonist activity at human androgen receptor expressed in CV1 cells

The target of experiment [2] is T1, Androgen receptor. The experiment in a line: biochemical.
Description: Binding affinity to human androgen receptor expressed in CV1 cells
The target of experiment [3] is T1, Androgen receptor. The source holds these as a separate data set.
Description: Agonist activity at human androgen receptor expressed in CV1 cells

pEC50, pIC50, pKi: −log10 of the molar value.

The pIC50 is the negative decadic logarithm of the IC50, by convention in mol/L. Read a high pIC50 as a low IC50. Consider `O=c1cc(C(F)(F)F)c2ccc(NCC(F)(F)F)cc2o1`, for which the pIC50 at Androgen receptor [1] is 7.30.
The same measure, in the same setting: in the case of `CCNc1ccc2[nH]c(=O)cc(C(F)(F)F)c2c1` it was 6.95.
Usually pKi stands for −log10 of the Ki, conventionally taken in molar units. For the molecule `O=c1cc(C(F)(F)F)c2ccc(NC3CCCC3)cc2[nH]1`, the pIC50 against Androgen receptor [1] was 6.83. The pKi on Androgen receptor [2] is 6.00.
The term pEC50 denotes the negative decadic logarithm of the EC50, by convention in mol/L. On to `O=c1cc(C(F)(F)F)c2ccc(N(CC(F)(F)F)CC(F)(F)F)cc2o1`, for which the pEC50 on Androgen receptor [3] was 7.14. At Androgen receptor [1], the negative logarithm of the IC50 (pIC50) is 7.20.
On Androgen receptor [1], `O=c1cc(C(F)(F)F)c2cc(NC3CCCC3)ccc2[nH]1` had a pIC50 of 7.38. At Androgen receptor [2], this molecule gave a pKi of 7.13.
In the same order, the values of `CCC1CCc2cc3c(C(F)(F)F)cc(=O)[nH]c3cc2N1` (stereo unspecified) are 7.85 and 7.96.
On to `O=c1cc(C(F)(F)F)c2ccc(NCc3ccccc3)cc2[nH]1`, for which, at Androgen receptor [1], the pIC50 is 6.53. The molecule further gave a negative logarithm of the Ki (pKi) at Androgen receptor [2] of 6.79.
Molecule `O=c1cc(C(F)(F)F)c2ccc(NC3CCCCC3)cc2[nH]1` had a negative-log IC50 (pIC50) on Androgen receptor [1] of 6.29. At Androgen receptor [2], the pKi is 6.00.
Consider `CC1(C)C=Cc2cc3c(C(F)(F)F)cc(O)nc3cc2N1`, for which, on Androgen receptor [1], the pIC50 is 7.57. For the same molecule, the negative logarithm of the Ki (pKi) on Androgen receptor [2] is 7.14.
